The values below come from patent publication US20080311681A1, “Antibody Binding Affinity Ligands” (priority 2004, published 2008).

Several values for one entry are separate records, joined by “and”; a condition that tells them apart may be missing. Equal entries are not always repeated.

One assay has as its system monoclonal antibody. The experiment in a line: Chromatographic evaluation of ligands coupled on Fractogel (packed column, load, wash, elution, regeneration). As to conditions: not optimized operation conditions. The format is binding. As for the experimental part:
The new resins were assessed in packed mode. 1 mL of each resin was packed into an HR5 chromatography column (GE Healthcare) applying standard conditions.
Before loading the matrix with the monoclonal antibody, the column was equilibrated with 6 column volumes equilibration buffer containing 50 mM Na-phosphate (pH 7.0; cond. 9 mS cm^−1). After equilibration a monoclonal antibody solution in equilibration buffer (protein conc. 1.14 mg/mL) was loaded to the column. Subsequently, the column was washed with 6 column volumes of equilibration buffer and eluted with 6 column volumes of elution buffer 1 (25 mM sodium acetate pH 5.5; cond. 1.8 mS cm^−1) and 6 column volumes of elution buffer 2 (25 mM sodium acetate buffer pH 3.8; 0.5 mS cm^−1). The column was stored in […] ethanol. Afterwards, the matrix was regenerated with 40 mM phosphoric acid and 20 mM sodium hydroxid. The flow rate for equilibration, load and wash was 60 cm/h, elution and regeneration was performed at a flow rate of 30 cm/h.
Consider D-Phe-(L)Arg-(L)Arg-Gly [LI#16], for which the “mAb in the flow through (in words)” value is given as “nothing was detected in the flow through”.

On to DBHBA-(L)Asn-(L)Arg-Gly [LII#55], for which the “mAb in the flow through (in words)” value is on record as “only limited material is in the flow through”.

For a further assay, the system named is Fc fragment of an antibody. The experiment in a line: Incubation of bead-bound ligands with labelled Fc fragment, fluorescence on beads. The format is binding. Details: key: 0 indicates no fluorescence; 3 indicates the strongest level of fluorescence observed. As to conditions: Oregon Green labelled Fc fragment, ligands on PEGA1900 beads, overnight at room temperature, arbitrary scale from 0 to 3, judged by eye. As for the experimental part: The Fc fragment of an antibody was purified by dialysis in bicarbonate buffer (pH 8). The purified Fc fragment was treated with Oregon Green dye (50×) in DMF and kept for 1 hour at room temperature. The reaction was stopped by adding hydroxylamine (1.5 M, pH 8.5). The labelled polypeptide was purified by dialysis in bicarbonate buffer (pH 8).
The beads (10 mg) were washed with water (10×), bicarbonate buffer (pH 8, 10×), and were suspended in bicarbonate buffer for 1 h. The labelled polypeptide was then added to the resin and kept overnight at room temperature. The resin was washed with bicarbonate buffer (pH 8) and water.
The fluorescence on the beads was recorded by using a fluorescence microscope and a digital camera. A mercury lamp equipped with an emission filter provided excitation in the visible blue range. The images of the beads were recorded in water.
The below table lists the ligands and the corresponding apparent level of fluorescence determined by simply looking at the samples and comparing the apparent colour intensities between samples. On an arbitrary scale from 0 to 3, where 0 indicates no fluorescence and 3 indicates the strongest level of fluorescence observed.
For the substance 3HBA-(L)Arg-(L)Pro-Gly [LII#44], the “mark (apparent level of fluorescence)” value came to 2.

Take 3HBA-(L)Pro-(L)Arg-Gly [LII#45]: the “mark (apparent level of fluorescence)” value is 2.

For 4HBA-(L)Arg-(L)Pro-Gly [LII#46], the “mark (apparent level of fluorescence)” value is reported as 2.

Take 4HBA-(L)Pro-(L)Arg-Gly [LII#47]: the “mark (apparent level of fluorescence)” value is 2.

In the case of D-Lys-INA-(L)Arg-Gly [LI#41], the “mark (apparent level of fluorescence)” value is 2.

As to D-Phe-(L)Arg-(L)Arg-Gly [LI#16], the “mark (apparent level of fluorescence)” value worked out at 2.

As for D-Pro-PPC-(L)Arg-Gly [L1#21], the “mark (apparent level of fluorescence)” value came out at 2.

Take DBHBA-(L)Arg-(L)Asn-Gly [LII#54]: the “mark (apparent level of fluorescence)” value was found to be 3.

Regarding DBHBA-(L)Asn-(L)Arg-Gly [LII#55], the “mark (apparent level of fluorescence)” value is reported as 3.

For INA-(L)Arg-D-Lys-Gly [LI#44], the “mark (apparent level of fluorescence)” value was 2.

Consider INA-D-Phe-PPC-Gly [LI#12], for which the “mark (apparent level of fluorescence)” value is on record as 2.

Take L-Arg-(L)Arg-D-Lys-Gly [LI#27]: the “mark (apparent level of fluorescence)” value is recorded as 2.

On to L-Arg-(L)Arg-D-Phe-Gly [LI#18], for which the “mark (apparent level of fluorescence)” value amounted to 2.

As for L-Arg-D-Lys-(L)Arg-Gly [LI#26], the “mark (apparent level of fluorescence)” value is listed as 2.

For the substance L-Arg-D-Phe-(L)Arg-Gly [LI#17], the “mark (apparent level of fluorescence)” value is 3 and 2.

In the case of L-Arg-D-Pro-PPC-Gly [LI#24], the “mark (apparent level of fluorescence)” value is recorded as 2.

Take PPC-(L)Arg-D-Pro-Gly [LI#20]: the “mark (apparent level of fluorescence)” value is 2.

As to PPC-Ahx-PPC-Gly [LI#53], the “mark (apparent level of fluorescence)” value is reported as 2.

On to PPC-Aib-PPC-Gly [LI#14], for which the “mark (apparent level of fluorescence)” value was determined as 2.

As to PPC-D-Leu-PPC-Gly [L1#50], the “mark (apparent level of fluorescence)” value is reported as 3.

On to PPC-D-Pro-(L)Arg-Gly [LI#19], for which the “mark (apparent level of fluorescence)” value was 3.

As to PPC-Nle-PPC-Gly [LI#56], the “mark (apparent level of fluorescence)” value was determined as 2.

On to SAA-(L)Arg-(L)Pro-Gly [LII#48], for which the “mark (apparent level of fluorescence)” value stood at 3.

As for SAA-(L)Pro-(L)Arg-Gly [LII#49], the “mark (apparent level of fluorescence)” value is given as 3.

The same assay, now with this note: Oregon Green labelled Fc fragment, ligands on PEGA1900 beads, overnight at room temperature, arbitrary scale from 0 to 3, judged by eye; listed as L1#16.
Turning to D-Phe-(L)Arg-(L)Arg-Gly [LI#16], the “mark (apparent level of fluorescence)” value stood at 3.
